Assays:
[1] = Chemical stability analysis in acidic conditions with HPLC monitoring; format: physicochemical; settings: 1% HCl/MeOH/rt; peak area percentage by HPLC; preliminary
[2] = system: HIV-1NL4-3; test: HIV-1 infectivity assay, single cycle infection, Luc reporter in TZM-bl cells; format: cell-based; settings: HIV-1NL4-3 in TZM-bl cells, discussion of Table 2

| Compound | Purity (area %) Reaction Time = 1 min [1] [%] | anti-HIV activity (in words) [2] |
| --- | --- | --- |
| Cc1cc(=O)oc2c3c(ccc12)OC(C)(C)[C@H](OC(=O)[C@@]12CC[C@@](C)(C(=O)O1)C2(C)C)[C@@H]3OC(=O)[C@@]12CC[C@@](C)(C(=O)O1)C2(C)C [Compound 2, 4-methyl-DCK] | 100 | – |
| CCc1cc(=O)c2ccc3c(c2o1)[C@@H](OC(=O)C12CCC(C)(C(=O)O1)C2(C)C)[C@@H](OC(=O)C12CCC(C)(C(=O)O1)C2(C)C)C(C)(C)O3 (stereo partly drawn) [Compound 4, 2-ethyl DCP] | 100 | – |
| Cc1cc(=O)oc2c(COC(=O)[C@@]34CC[C@@](C)(C(=O)O3)C4(C)C)c(OC(C)C)ccc12 [Compound 7] | 100 | – |
| CCc1cc(=O)c2ccc(OC(C)C)c(COC(=O)C34CCC(C)(C(=O)O3)C4(C)C)c2o1 (stereo not drawn) [Compound 12, 4′-((−)-Camphanoyloxymethyl)-2-ethyl-7-isopropoxy-4H-chromen-4-one] | 100 | – |
| CCc1cc(=O)c2ccc(OC3CCOC3=O)c(COC(=O)[C@@]34CCC(C)(C(=O)O3)C4(C)C)c2o1 (stereo partly drawn) [Compound 16, 4′-((−)-Camphanoyloxymethyl)-2-ethyl-7-(2-oxo-tetrahydrofuran-3-yloxy)-4H-chromen-4-one] | – | lost all activity |
| CCc1cc(=O)c2ccc(OCc3cccc(C(F)(F)F)c3)c(COC(=O)[C@@]34CCC(C)(C(=O)O3)C4(C)C)c2o1 [Compound 20, 4′-((−)-Camphanoyloxymethyl)-2-ethyl-7-(3-(trifluoromethyl)benzyloxy)-4H-chromen-4-one] | – | lost all activity |
| CCc1cc(=O)c2ccc(OCc3cc(OC)cc(OC)c3)c(COC(=O)C34CCC(C)(C(=O)O3)C4(C)C)c2o1 (stereo not drawn) [Compound 25, 4′-((−)-Camphanoyloxymethyl)-7-(3,5-dimethoxybenzyloxy)-2-ethyl-4H-chromen-4-one] | – | very weak anti-HIV activity |
| CCc1cc(=O)c2ccc(OCc3cc(OC)c(OC)cc3[N+](=O)[O-])c(COC(=O)[C@@]34CCC(C)(C(=O)O3)C4(C)C)c2o1 [Compound 28, 4′-((−)-Camphanoyloxymethyl)-7-(4,5-dimethoxy-2-nitrobenzyloxy)-2-ethyl-4H-chromen-4-one] | – | lost all activity |
| Cc1cc(=O)oc2c(COC(=O)[C@@]34CC[C@@](C)(C(=O)O3)C4(C)C)c(SC(C)C)ccc12 [Compound 32, 4′-((−)-Camphanoyloxymethyl)-7-(isopropylthio)-4-methyl-2H-chromen-2-one] | 100 | – |
